Test results reported in patent publication US20060069132A1, “Azolecarboxamide herbicides” (priority 2004, published 2006).

Assays:
[1] = system: giant foxtail; assay: Test B pre-/postemergence herbicide test; format: in vivo, Setaria faberi; details: for Plant response rating, Foxtail, Giant: preemergence; for Foxtail, Giant plant response rating: postemergence, visual rating, scale 0 (no effect) to 100 (complete control)
Summary of the method: (§1)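 Evaluation is visual, comparing treated with control plants on a scale where 0 means no effect and 100 means full control. Treatments were preemergence, or postemergence on seedlings 2–18 cm tall, and held 13–15 days in the greenhouse.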

[2] = system: pigweed; assay: Test B pre-/postemergence herbicide test; format: in vivo, Amaranthus retroflexus; details: for Plant response rating, Pigweed: preemergence; for Pigweed plant response rating: postemergence, visual rating, scale 0 (no effect) to 100 (complete control)
Summary of the method: as §1

[3] = system: morningglory; assay: Test B pre-/postemergence herbicide test; format: in vivo, Ipomoea coccinea; details: for Plant response rating, Morningglory: preemergence; for Morningglory plant response rating: postemergence, visual rating, scale 0 (no effect) to 100 (complete control)
Summary of the method: (§2)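 Formulation: non-phytotoxic solvent mix with surfactant. Timing: preemergence on seed and postemergence on 2–18 cm plants, applied concurrently. Readout after 13–15 d greenhouse: visual 0–100 control rating against controls.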

[4] = system: wheat; assay: Test B postemergence herbicide test; format: in vivo, Triticum aestivum; set-up: key to Wheat plant response rating: 0 = no effect, 100 = complete control; details: postemergence, 500 g ai/ha; visual rating, scale 0 (no effect) to 100 (complete control)
Summary of the method: (§3)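 Each value is a visual 0–100 response rating taken against controls 13 to 15 days after treatment in the greenhouse. Plants received formulated chemical postemergence at the 1- to 4-leaf stage or, in flooded paddy, at the 2-leaf stage.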

[5] = system: wild oat; assay: Test B postemergence herbicide test; format: in vivo, Avena fatua; details: postemergence, visual rating, scale 0 (no effect) to 100 (complete control)
Summary of the method: as §3

[6] = system: ducksalad; assay: Test B flooded paddy test; format: in vivo, Heteranthera limosa; details: 1000 g ai/ha, visual rating, scale 0 to 100 (0 no effect, 100 complete control), 13 to 15 days
Summary of the method: (§4)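 Scale 0–100: zero equals no visible effect, 100 complete control, judged by eye relative to controls. Timing: 13 to 15 days in greenhouse post-treatment. Growth stage at spraying: two leaves (paddy) or one to four leaves, 2–18 cm (postemergence).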

[7] = system: lambsquarters; assay: Test B pre-/postemergence herbicide test; format: in vivo, Chenopodium album; details: for Plant response rating, Lambsquarters: preemergence; for Lambsquarters plant response rating: postemergence, visual rating, scale 0 (no effect) to 100 (complete control)
Summary of the method: as §1

[8] = system: barnyardgrass; assay: Test B flooded paddy test; format: in vivo, Echinochloa crus-galli; details: 1000 g ai/ha, visual rating, scale 0 to 100 (0 no effect, 100 complete control), 13 to 15 days
Summary of the method: as §4

[9] = system: small flower umbrella sedge; assay: Test B flooded paddy test; format: in vivo, Cyperus difformis; details: 1000 g ai/ha, visual rating, scale 0 to 100 (0 no effect, 100 complete control), 13 to 15 days
Summary of the method: as §4

[10] = system: smallflower umbrella sedge; assay: Test C flooded paddy test; format: in vivo, Cyperus difformis
[11] = system: corn; assay: Test B pre-/postemergence herbicide test; format: in vivo, Zea mays; details: for Plant response rating, Corn: preemergence; for Corn plant response rating: postemergence, visual rating, scale 0 (no effect) to 100 (complete control)
Summary of the method: as §1

[12] = system: velvetleaf; assay: Test B pre-/postemergence herbicide test; format: in vivo, Abutilon theophrasti; details: for Plant response rating, Velvetleaf: preemergence; for Velvetleaf plant response rating: postemergence, visual rating, scale 0 (no effect) to 100 (complete control)
Summary of the method: as §1

[13] = system: barnyardgrass; assay: Test B pre-/postemergence herbicide test; format: in vivo, Echinochloa crus-galli; details: for Plant response rating, Barnyardgrass: preemergence; for Barnyardgrass plant response rating: postemergence, visual rating, scale 0 (no effect) to 100 (complete control)
Summary of the method: as §2

[14] = system: rice; assay: Test B pre-/postemergence herbicide test; format: in vivo, Oryza sativa; details: 500 g ai/ha; visual rating 0-100, 0 no effect, 100 complete control; preemergence
Summary of the method: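 Plants compared with untreated controls 13–15 days post-treatment and given a visual 0–100 injury score. Applications: preemergence to seeds; postemergence at 1- to 4-leaf (2–18 cm); paddy species flooded, 2-leaf stage. Vehicle non-phytotoxic, surfactant included.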

[15] = system: rice; assay: Test C flooded paddy test; format: in vivo, Oryza sativa
Summary of the method: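 Injury scored visually against controls on a 0 (no effect) to 100 (complete control) scale, 12 to 14 days after treatment in greenhouse. Flooded paddy plants treated at 2-leaf stage; postemergence plants at 1- to 4-leaf stage, 2 to 18 cm tall.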

[16] = system: barnyardgrass; assay: Test C flooded paddy test; format: in vivo, Echinochloa crus-galli
Summary of the method: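 Ratings (0 = no effect, 100 = complete control) come from visual comparison with untreated plants after 12 to 14 days in the greenhouse. Treatment was postemergence at the 1- to 4-leaf stage (2–18 cm), or at the 2-leaf stage for the flooded paddy barnyardgrass.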

[17] = system: cocklebur; assay: Test B pre-/postemergence herbicide test; format: in vivo, Xanthium strumarium; details: for Plant response rating, Cocklebur: preemergence; for Cocklebur plant response rating: postemergence, visual rating, scale 0 (no effect) to 100 (complete control)
Summary of the method: as §2

[18] = system: blackgrass; assay: Test B postemergence herbicide test; format: in vivo, Alopecurus myosuroides; details: postemergence, 500 g ai/ha; visual rating, scale 0 (no effect) to 100 (complete control)
Summary of the method: as §4

[19] = system: ducksalad; assay: Test C flooded paddy test; format: in vivo, Heteranthera limosa
[20] = system: large crabgrass; assay: Test B pre-/postemergence herbicide test; format: in vivo, Digitaria sanguinalis; details: for Plant response rating, Crabgrass, Large: preemergence; for Crabgrass, Large plant response rating: postemergence, visual rating, scale 0 (no effect) to 100 (complete control)
Summary of the method: as §1

[21] = system: rice; assay: Test B flooded paddy test; format: in vivo, Oryza sativa; details: 1000 g ai/ha, visual rating, scale 0 to 100 (0 no effect, 100 complete control), 13 to 15 days
Summary of the method: as §3

[22] = system: Surinam grass; assay: Test B pre-/postemergence herbicide test; format: in vivo, Urochloa decumbens; details: for Plant response rating, Surinam Grass: preemergence; for Surinam Grass plant response rating: postemergence, visual rating, scale 0 (no effect) to 100 (complete control)
Summary of the method: as §1

[23] = 500 g ai/ha, visual rating 0-100, 0 no effect, 100 complete control
[24] = 125 g ai/ha, 0 to 100 scale, 0 is no effect, 100 is complete control
[25] = 62 g ai/ha, scale 0 to 100 (0 no effect, 100 complete control)
[26] = 125 g ai/ha, scale 0 to 100 (0 no effect, 100 complete control)
[27] = 250 g ai/ha, scale of 0 to 100, 0 is no effect, 100 is complete control
[28] = 500 g ai/ha, visual rating after 12 to 14 days, scale 0 to 100 (0 no effect, 100 complete control)

For C#CCN(C)C(=O)c1ccnc(NC(=O)c2cc(C(C)(C)C)nn2CC)c1 [Compound 160], the “Plant response rating, Foxtail, Giant” value [1, 23] was 70, the “Foxtail, Giant plant response rating” value ([1]; 125 g ai/ha) was 30 and the “Foxtail, Giant plant response rating” value ([1]; 500 g ai/ha) was 30. For the same compound, the “Plant response rating, Foxtail, Giant” value [1, 24] was 10, the “Plant response rating, Pigweed” value [2, 23] was 100 and the “Pigweed plant response rating” value ([2]; 125 g ai/ha) was 40. For the same compound, the “Pigweed plant response rating” value ([2]; 500 g ai/ha) was 80, the “Plant response rating, Pigweed” value [2, 24] was 100 and the “Plant response rating, Morningglory” value [3, 23] was 90. The “Morningglory plant response rating” value ([3]; 125 g ai/ha) was 0, the “Morningglory plant response rating” value ([3]; 500 g ai/ha) was 70 and the “Plant response rating, Morningglory” value [3, 24] was 20. The “Wheat plant response rating” value [4] was 10, the “Oat, Wild plant response rating” value ([5]; 125 g ai/ha) was 10 and the “Oat, Wild plant response rating” value ([5]; 500 g ai/ha) was 30. The “Ducksalad plant response rating” value [6] was 90, the “Plant response rating, Lambsquarters” value [7, 23] was 100 and the “Lambsquarters plant response rating” value ([7]; 125 g ai/ha) was 70. The “Lambsquarters plant response rating” value ([7]; 500 g ai/ha) was 80, the “Plant response rating, Lambsquarters” value [7, 24] was 100 and the “Barnyardgrass plant response rating” value [8] was 70. The “Sedge, Umbrella plant response rating” value [9] was 80, the “Sedge, Umbrella plant response rating” value [10, 25] was 50 and the “Sedge, Umbrella plant response rating” value [10, 26] was 70. For the same compound, the “Sedge, Umbrella plant response rating” value [10, 27] was 80, the “Plant response rating, Sedge, Umbrella” value [10, 28] was 85 and the “Plant response rating, Corn” value [11, 23] was 20. The “Corn plant response rating” value ([11]; 125 g ai/ha) was 0, the “Corn plant response rating” value ([11]; 500 g ai/ha) was 0 and the “Plant response rating, Corn” value [11, 24] was 0. For the same compound, the “Plant response rating, Velvetleaf” value [12, 23] was 80, the “Velvetleaf plant response rating” value ([12]; 125 g ai/ha) was 70 and the “Velvetleaf plant response rating” value ([12]; 500 g ai/ha) was 70. For the same compound, the “Plant response rating, Velvetleaf” value [12, 24] was 60, the “Plant response rating, Barnyardgrass” value [13, 23] was 100 and the “Barnyardgrass plant response rating” value ([13]; 125 g ai/ha) was 0. The “Barnyardgrass plant response rating” value ([13]; 500 g ai/ha) was 10, the “Plant response rating, Barnyardgrass” value [13, 24] was 70 and the “Plant response rating, Rice” value [14] was 80. The “Rice plant response rating” value [15, 25] was 60, the “Rice plant response rating” value [15, 26] was 70 and the “Rice plant response rating” value [15, 27] was 75. The “Plant response rating, Rice” value [15, 28] was 95, the “Barnyardgrass plant response rating” value [16, 25] was 20 and the “Barnyardgrass plant response rating” value ([16]; 125 g ai/ha, scale of 0 to 100, 0 is no effect, 100 is complete control) was 60. The “Barnyardgrass plant response rating” value [16, 27] was 70, the “Plant response rating, Barnyardgrass” value [16, 28] was 85 and the “Plant response rating, Cocklebur” value [17, 23] was 70. For the same compound, the “Cocklebur plant response rating” value ([17]; 125 g ai/ha) was 20, the “Cocklebur plant response rating” value ([17]; 500 g ai/ha) was 90 and the “Plant response rating, Cocklebur” value [17, 24] was 40. The “Blackgrass plant response rating” value [18] was 50, the “Ducksalad plant response rating” value [19, 25] was 75 and the “Ducksalad plant response rating” value [19, 26] was 85. The “Ducksalad plant response rating” value [19, 27] was 90, the “Plant response rating, Ducksalad” value [19, 28] was 90 and the “Plant response rating, Crabgrass, Large” value [20, 23] was 80. For the same compound, the “Crabgrass, Large plant response rating” value ([20]; 125 g ai/ha) was 0, the “Crabgrass, Large plant response rating” value ([20]; 500 g ai/ha) was 0 and the “Plant response rating, Crabgrass, Large” value [20, 24] was 20. For the same compound, the “Rice plant response rating” value [21] was 90, the “Plant response rating, Surinam Grass” value [22, 23] was 70 and the “Surinam Grass plant response rating” value ([22]; 125 g ai/ha) was 10. For the same compound, the “Surinam Grass plant response rating” value ([22]; 500 g ai/ha) was 10 and the “Plant response rating, Surinam Grass” value [22, 24] was 20.
